Marks after values point to notes of the source that are not given here. One block for each molecule: values may come before it.
How the values were obtained:
[1] = PHA-001 study: PK interaction study with methotrexate in RA patients; settings: single dose of CDP-870 400 mg SC; oral MTX 5-17.5 mg/week
TNFβ (lymphotoxin) = target: T1, TNFβ (lymphotoxin) (Homo sapiens, UniProt P01374); assay: Neutralization of TNFβ (lymphotoxin)
T1 sequence (P01374 35-205): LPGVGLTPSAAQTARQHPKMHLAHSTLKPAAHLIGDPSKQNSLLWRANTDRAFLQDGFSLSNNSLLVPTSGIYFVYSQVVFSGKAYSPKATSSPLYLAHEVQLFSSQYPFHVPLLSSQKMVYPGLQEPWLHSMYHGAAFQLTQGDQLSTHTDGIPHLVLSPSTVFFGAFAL

[2] = Half-life of the PEGylated Fab′ fragment; type: in vivo; settings: PEG chains linked by a single maleimide group
patients with active RA [3] = assay: Celltech-002 study: single IV infusion, ACR responder rates; type: in vivo, human; settings: for ACR20 responder rate / ACR50 responder rate: week 8
Protocol: DMARD therapy was discontinued one month prior to study start; concomitant nonsteroidal anti-inflammatory drug (NSAID) and corticosteroid use was allowed provided the doses had been stabilized prior to entry into the study. […] Patients were assessed over an 8-week period.
Patients were assessed for an additional 8-week period.
(§1) The overall effect of CDP870 in reducing the signs and symptoms of RA was summarized using the following global index: • American College of Rheumatology (ACR) Core Set of Disease Activity Measures for Rheumatoid Arthritis Clinical Trials. A patient was considered an ACR 20/50/70 responder if 20/50/70% or greater improvement in number of swollen joints and tender joints and a 20/50/70% or greater improvement in three of the five remaining ACR core set measures (Patient's Assessment of Pain by VAS, Patient's Global Assessment of Disease Activity, Physician's Global Assessment of Disease Activity, Patient's Assessment of Physical Function by mHAQ, acute phase reactant value) was observed; and […]

patients with active RA [4] = assay: Celltech-004 study: SC every 4 weeks, ACR responder rates; type: in vivo, human; settings: for ACR-20 responder rate / ACR-50 responder rate / ACR-70 responder rate: week 12
Protocol: Again, DMARD therapy was discontinued one month prior to study start; concomitant NSAID and corticosteroid use was allowed provided the doses had been stabilized prior to entry into the study.
The protocol was subsequently amended based on the results of the double-blind portion of Panel 1, to increase the dose to 400 mg SC every 4 weeks for an additional 108 weeks.
as §1

[5] = human, in vivo

mean dose-adjusted MTX plasma concentrations, MTX alone versus coadministration with CDP-870 [1]: not significantly different
Molecule: CN(Cc1cnc2nc(N)nc(N)c2n1)c1ccc(C(=O)N[C@@H](CCC(=O)O)C(=O)O)cc1 [MTX, methotrexate]

Molecule: CDP-870: PEGylated anti-TNFα Fab′ fragment derived from antibody hTNF40, linked via a cysteine to a lysyl-maleimide linker bearing two methoxy PEG residues
neutralization of TNFβ (lymphotoxin) (TNFβ (lymphotoxin)): does not neutralize
half-life [2]: about 11 days
ACR20 responder rate (patients with active RA [3]; 1 mg/kg single IV): 25 % of Patients
ACR50 responder rate (patients with active RA [3]; 1 mg/kg single IV): 13 % of Patients
ACR20 responder rate (patients with active RA [3]; 5 mg/kg single IV): 75 % of Patients
ACR50 responder rate (patients with active RA [3]; 5 mg/kg single IV): 13 % of Patients
ACR20 responder rate (patients with active RA [3]; 20 mg/kg single IV): 75 % of Patients
ACR50 responder rate (patients with active RA [3]; 20 mg/kg single IV): 50 % of Patients
efficacy in reducing the signs and symptoms of RA (patients with active RA [3]; single IV dose of 1, 5 or 20 mg/kg, over 8 weeks): efficacious
ACR-20 responder rate (patients with active RA [4]; 50 mg SC every 4 weeks): 21 % of Patients
ACR-50 responder rate (patients with active RA [4]; 50 mg SC every 4 weeks): 8 % of Patients
ACR-70 responder rate (patients with active RA [4]; 50 mg SC every 4 weeks): 5 % of Patients
ACR-20 responder rate (patients with active RA [4]; 100 mg SC every 4 weeks): 20 % of Patients
ACR-50 responder rate (patients with active RA [4]; 100 mg SC every 4 weeks): 5 % of Patients
ACR-70 responder rate (patients with active RA [4]; 100 mg SC every 4 weeks): 3 % of Patients
ACR-20 responder rate (patients with active RA [4]; 200 mg SC every 4 weeks): 34 % of Patients
ACR-50 responder rate (patients with active RA [4]; 200 mg SC every 4 weeks): 17* % of Patients
ACR-70 responder rate (patients with active RA [4]; 200 mg SC every 4 weeks): 7 % of Patients
ACR-20 responder rate (patients with active RA [4]; 400 mg SC every 4 weeks): 60* % of Patients
ACR-50 responder rate (patients with active RA [4]; 400 mg SC every 4 weeks): 40* % of Patients
ACR-70 responder rate (patients with active RA [4]; 400 mg SC every 4 weeks): 29* % of Patients
ACR-20 responder rate (patients with active RA [4]; 600 mg SC every 4 weeks): 64* % of Patients
ACR-50 responder rate (patients with active RA [4]; 600 mg SC every 4 weeks): 33* % of Patients
ACR-70 responder rate (patients with active RA [4]; 600 mg SC every 4 weeks): 21* % of Patients
ACR-20 responder rate (patients with active RA [4]; 800 mg SC every 4 weeks): 79* % of Patients
ACR-50 responder rate (patients with active RA [4]; 800 mg SC every 4 weeks): 47* % of Patients
ACR-70 responder rate (patients with active RA [4]; 800 mg SC every 4 weeks): 21* % of Patients
efficacy in treating the signs and symptoms of RA (patients with active RA [4]; doses ≧400 mg SC every 4 weeks): efficacious
mean plasma concentration at 55 days postdose [5]: 2740 ng/mL
CL/F (plasma clearance) ([5]; sc): 0.021 L/h
t½ ([5]; sc): 10.738 days
mean t½ ([5]; sc, 400 mg): 10.7 days
overall plasma exposure (AUC) over the 55-day monitoring period ([5]; sc, 400 mg): approximately 22000 hr*μg/mL
